Results on 1 compound are retold here after ChEMBL document CHEMBL1159276, “Sinugibberol, a new cytotoxic cembranoid diterpene from the soft coral Sinularia gibberosa” (1995).

The structures appear in SMILES notation. Converted amounts (≈) assume the structure as drawn.

The test system of one test is P388. Put plainly: Cytotoxicity against mouse P388 cells by MTT method. It is filed as functional. Particulars: read-out: ED50 (the source's name).
For another test, the system named is HT-29. Put plainly: Cytotoxicity against human HT-29 cells after 6 days by MTT method. It is filed as functional. Particulars: HT-29, 144 h, read-out: ED50 (the source's name). For orientation: Tetrazolium assays rely on reduction of a dye to a coloured formazan, in cell work by metabolically active cells.

Consider `C/C1=C\CC[C@@]2(C)O[C@@H]2/C=C(/C(C)(C)O)CC[C@@]2(C)O[C@@H]2CC1` [SINUGIBBEROL], for which the results for the EC50 with P388 and in the test with HT-29 were 11.7 µg/mL (≈ 36.5 µM) and 0.5 µg/mL (≈ 1.56 µM), respectively.
